Test results as given in ChEMBL document CHEMBL3882729, “Receptor-type kinase modulators and methods of use” (2009).

Legend:
Ephrin type-B receptor 4 = target: T1, Ephrin type-B receptor 4 (Homo sapiens, UniProt P54760); assay: Inhibition of recombinant human N-terminal His6-tagged EphB4 kinase domain (E605 to E890 residues) expressed in baculovirus using poly-AEKY as substrate after 150 mins in presence of gamma33P-ATP by liquid scintillation spectrometry
T1 sequence (P54760 whole entry): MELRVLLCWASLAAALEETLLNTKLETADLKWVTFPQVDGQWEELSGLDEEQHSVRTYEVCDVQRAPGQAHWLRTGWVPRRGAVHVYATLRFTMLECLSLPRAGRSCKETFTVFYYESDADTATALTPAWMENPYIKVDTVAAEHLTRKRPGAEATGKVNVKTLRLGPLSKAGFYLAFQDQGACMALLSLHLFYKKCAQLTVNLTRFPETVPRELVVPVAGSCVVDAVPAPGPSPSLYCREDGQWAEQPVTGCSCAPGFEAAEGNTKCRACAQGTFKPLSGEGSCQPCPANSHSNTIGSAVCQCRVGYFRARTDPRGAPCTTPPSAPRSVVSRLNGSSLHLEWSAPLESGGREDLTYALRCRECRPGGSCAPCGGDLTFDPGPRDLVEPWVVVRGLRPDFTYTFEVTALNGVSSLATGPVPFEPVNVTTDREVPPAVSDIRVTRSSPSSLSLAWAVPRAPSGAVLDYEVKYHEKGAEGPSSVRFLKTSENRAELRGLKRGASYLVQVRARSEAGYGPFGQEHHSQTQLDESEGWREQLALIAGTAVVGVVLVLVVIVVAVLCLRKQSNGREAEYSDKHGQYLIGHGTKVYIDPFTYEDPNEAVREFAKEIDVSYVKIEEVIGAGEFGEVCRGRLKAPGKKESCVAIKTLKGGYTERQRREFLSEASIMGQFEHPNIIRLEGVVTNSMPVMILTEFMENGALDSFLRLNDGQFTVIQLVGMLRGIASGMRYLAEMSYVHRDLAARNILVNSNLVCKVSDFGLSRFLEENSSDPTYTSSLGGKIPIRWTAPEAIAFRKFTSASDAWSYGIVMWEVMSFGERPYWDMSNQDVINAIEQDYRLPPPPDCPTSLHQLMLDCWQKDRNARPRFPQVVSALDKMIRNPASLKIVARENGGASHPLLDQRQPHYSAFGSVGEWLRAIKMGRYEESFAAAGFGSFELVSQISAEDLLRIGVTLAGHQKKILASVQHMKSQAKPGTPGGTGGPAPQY

Ephrin type-A receptor 2 = Ephrin type-A receptor 2 (Homo sapiens, UniProt P29317); assay: Inhibition of recombinant human N-terminal His6-tagged EphA2 (N598 to R890 residues) expressed in baculovirus using poly-EY as substrate after 180 mins by luciferase coupled chemiluminescence assay
[1] = target: Vascular endothelial growth factor receptor 2 (Homo sapiens, UniProt P35968); assay: Inhibition of recombinant human N-terminal GST-fused KDR (D807 to V1356 residues) expressed in baculovirus infected […] insect Sf9 cells using poly-EY as substrate after 240 mins by luciferase coupled chemiluminescence assay
[2] = target: Receptor tyrosine-protein kinase erbB-2 (Homo sapiens, UniProt P04626); assay: Inhibition of recombinant human N-terminal GST His6-tagged thrombin cleavage site-fused ErbB2 kinase domain (Q679 to V1255 residues) expressed in baculovirus infected insect Sf9 cells using biotinylated poly-EY as substrate after 60 mins by alphascreen assay
Chain of Receptor tyrosine-protein kinase erbB-2 (P04626 whole entry, the tested form may be a part): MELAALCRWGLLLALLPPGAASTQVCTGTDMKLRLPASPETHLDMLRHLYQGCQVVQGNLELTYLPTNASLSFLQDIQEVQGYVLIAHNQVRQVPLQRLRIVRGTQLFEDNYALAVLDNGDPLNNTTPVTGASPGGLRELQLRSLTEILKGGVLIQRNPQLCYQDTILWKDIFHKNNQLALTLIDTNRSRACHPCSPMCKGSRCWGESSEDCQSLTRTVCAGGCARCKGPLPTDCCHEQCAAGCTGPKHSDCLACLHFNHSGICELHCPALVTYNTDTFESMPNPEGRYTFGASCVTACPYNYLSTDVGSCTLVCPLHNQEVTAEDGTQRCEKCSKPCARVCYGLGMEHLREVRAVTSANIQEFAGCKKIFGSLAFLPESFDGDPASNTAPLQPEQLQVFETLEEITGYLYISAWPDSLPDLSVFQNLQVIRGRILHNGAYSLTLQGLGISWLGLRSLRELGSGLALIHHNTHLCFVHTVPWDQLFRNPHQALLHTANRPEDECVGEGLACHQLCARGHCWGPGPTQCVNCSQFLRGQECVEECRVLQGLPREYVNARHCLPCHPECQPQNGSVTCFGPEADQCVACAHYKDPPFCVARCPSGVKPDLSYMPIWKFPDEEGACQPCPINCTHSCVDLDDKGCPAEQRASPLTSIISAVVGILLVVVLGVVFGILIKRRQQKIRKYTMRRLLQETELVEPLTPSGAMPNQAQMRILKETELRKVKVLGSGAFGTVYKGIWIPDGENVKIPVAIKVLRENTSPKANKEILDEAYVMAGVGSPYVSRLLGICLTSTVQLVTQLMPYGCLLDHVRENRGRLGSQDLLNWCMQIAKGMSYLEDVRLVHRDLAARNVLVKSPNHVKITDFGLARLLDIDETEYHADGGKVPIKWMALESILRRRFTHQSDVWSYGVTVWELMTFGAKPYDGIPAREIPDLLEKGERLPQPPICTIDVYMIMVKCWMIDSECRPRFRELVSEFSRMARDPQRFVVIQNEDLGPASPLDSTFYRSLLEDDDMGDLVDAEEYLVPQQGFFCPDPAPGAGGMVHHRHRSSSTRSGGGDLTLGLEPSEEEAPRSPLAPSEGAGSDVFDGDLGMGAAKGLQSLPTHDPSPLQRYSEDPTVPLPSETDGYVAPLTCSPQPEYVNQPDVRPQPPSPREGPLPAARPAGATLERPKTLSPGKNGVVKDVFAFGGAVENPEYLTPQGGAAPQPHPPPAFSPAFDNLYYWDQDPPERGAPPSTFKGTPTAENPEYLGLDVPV

Chain of Ephrin type-A receptor 2 (P29317 whole entry, the tested form may be a part): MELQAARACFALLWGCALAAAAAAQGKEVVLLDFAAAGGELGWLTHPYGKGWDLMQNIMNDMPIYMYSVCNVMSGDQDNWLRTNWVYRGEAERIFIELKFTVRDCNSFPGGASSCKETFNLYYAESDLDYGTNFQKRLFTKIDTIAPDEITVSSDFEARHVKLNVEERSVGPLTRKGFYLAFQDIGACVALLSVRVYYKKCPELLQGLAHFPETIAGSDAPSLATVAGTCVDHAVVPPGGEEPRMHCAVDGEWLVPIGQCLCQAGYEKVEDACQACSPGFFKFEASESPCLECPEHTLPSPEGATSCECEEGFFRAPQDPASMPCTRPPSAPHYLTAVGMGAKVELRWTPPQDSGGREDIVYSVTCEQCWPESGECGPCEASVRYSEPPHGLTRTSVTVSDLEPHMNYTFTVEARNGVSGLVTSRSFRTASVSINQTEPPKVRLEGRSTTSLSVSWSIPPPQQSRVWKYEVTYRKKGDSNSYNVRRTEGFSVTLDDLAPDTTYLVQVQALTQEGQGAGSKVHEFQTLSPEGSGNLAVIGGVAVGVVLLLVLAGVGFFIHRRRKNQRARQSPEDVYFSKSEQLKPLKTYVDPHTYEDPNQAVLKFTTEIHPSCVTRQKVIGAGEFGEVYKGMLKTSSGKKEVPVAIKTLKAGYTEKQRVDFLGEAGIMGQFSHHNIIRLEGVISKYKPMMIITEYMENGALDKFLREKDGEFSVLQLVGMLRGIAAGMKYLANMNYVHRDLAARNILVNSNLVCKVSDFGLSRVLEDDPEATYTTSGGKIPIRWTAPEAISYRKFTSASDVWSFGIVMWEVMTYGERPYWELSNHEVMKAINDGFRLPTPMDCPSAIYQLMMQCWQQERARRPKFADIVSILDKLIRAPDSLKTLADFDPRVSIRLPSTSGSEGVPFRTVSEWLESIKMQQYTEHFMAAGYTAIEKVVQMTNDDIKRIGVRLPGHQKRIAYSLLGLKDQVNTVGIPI
Chain of Vascular endothelial growth factor receptor 2 (P35968 whole entry, the tested form may be a part): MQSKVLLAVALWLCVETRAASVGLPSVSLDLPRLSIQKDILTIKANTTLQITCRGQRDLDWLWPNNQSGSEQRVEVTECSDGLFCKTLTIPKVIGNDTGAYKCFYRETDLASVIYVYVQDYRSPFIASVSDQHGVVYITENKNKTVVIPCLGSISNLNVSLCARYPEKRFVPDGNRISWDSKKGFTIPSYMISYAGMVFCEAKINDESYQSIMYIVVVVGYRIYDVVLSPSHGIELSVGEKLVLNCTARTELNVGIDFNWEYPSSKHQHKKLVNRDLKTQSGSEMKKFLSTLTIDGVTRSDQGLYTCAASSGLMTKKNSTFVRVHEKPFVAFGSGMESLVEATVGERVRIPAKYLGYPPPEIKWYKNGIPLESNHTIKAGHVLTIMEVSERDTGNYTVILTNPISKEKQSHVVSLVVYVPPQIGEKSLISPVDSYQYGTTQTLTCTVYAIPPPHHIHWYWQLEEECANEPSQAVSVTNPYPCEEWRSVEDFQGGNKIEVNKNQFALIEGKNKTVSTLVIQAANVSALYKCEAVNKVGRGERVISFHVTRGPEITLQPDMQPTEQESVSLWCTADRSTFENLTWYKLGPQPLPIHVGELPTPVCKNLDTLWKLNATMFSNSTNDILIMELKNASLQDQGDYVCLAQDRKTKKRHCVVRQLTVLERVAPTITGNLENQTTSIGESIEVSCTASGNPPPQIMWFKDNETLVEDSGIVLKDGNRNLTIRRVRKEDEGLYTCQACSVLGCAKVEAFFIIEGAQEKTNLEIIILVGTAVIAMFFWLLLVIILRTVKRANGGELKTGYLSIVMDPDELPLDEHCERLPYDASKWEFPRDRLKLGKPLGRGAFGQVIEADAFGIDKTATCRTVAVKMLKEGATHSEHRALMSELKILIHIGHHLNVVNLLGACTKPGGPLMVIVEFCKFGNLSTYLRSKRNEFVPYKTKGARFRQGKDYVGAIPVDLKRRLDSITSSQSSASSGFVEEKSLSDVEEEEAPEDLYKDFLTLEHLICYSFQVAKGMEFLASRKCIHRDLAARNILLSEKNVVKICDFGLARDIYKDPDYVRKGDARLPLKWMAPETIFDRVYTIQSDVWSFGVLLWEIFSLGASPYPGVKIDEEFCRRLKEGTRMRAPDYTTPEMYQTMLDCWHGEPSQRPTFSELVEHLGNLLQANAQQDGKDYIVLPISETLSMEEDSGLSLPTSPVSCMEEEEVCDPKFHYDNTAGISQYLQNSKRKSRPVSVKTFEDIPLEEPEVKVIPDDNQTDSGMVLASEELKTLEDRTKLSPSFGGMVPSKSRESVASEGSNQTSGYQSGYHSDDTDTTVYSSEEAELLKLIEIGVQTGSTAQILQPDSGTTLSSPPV

Row | Compound | IC50 (Ephrin type-B receptor 4) [nM] | IC50 (Ephrin type-A receptor 2) [nM] | IC50 [1] [nM] | IC50 [2] [nM]
1 | COc1cc2c(Nc3cc(Cl)c(Cl)c(Cl)c3)ncnc2cc1OCC1CN(C)CCO1 (stereo unspecified) | < 50 | 50 to 1000 | 50 to 1000 | 50 to 1000
2 | COc1cc2c(Nc3ccc(F)c(Cl)c3F)ncnc2cc1OCC1CN(C)C(C)(C)CO1 (stereo unspecified) | < 50 | < 50 | 50 to 1000 | 50 to 1000
3 | COc1cc2c(Nc3ccc(Cl)c(Cl)c3)ncnc2cc1OCC1CN(S(C)(=O)=O)CCO1 (stereo unspecified) | < 50 | < 50 | 50 to 1000 | < 50
4 | COc1cc2c(Nc3cc(Cl)c(Br)cc3F)ncnc2cc1OCC1CN(C)C(C)(C)CO1 (stereo unspecified) | < 50 | < 50 | < 50 | 50 to 1000
5 | COc1cc2c(Nc3ccc(Cl)c(Cl)c3C)ncnc2cc1OCC1CN(C)CCO1 (stereo unspecified) | < 50 | 50 to 1000 | 50 to 1000 | 1000 to 20000
6 | COc1cc2c(Nc3ccc(Cl)c(Cl)c3)ncnc2cc1OCC1CN(C)CC(C)(C)O1 (stereo unspecified) | 50 to 1000 | – | 50 to 1000 | 50 to 1000
7 | COc1cc2c(Nc3ccc(Cl)c(Cl)c3)ncnc2cc1OCC1CN(C(=O)c2cccnc2Cl)CCO1 (stereo unspecified) | < 50 | 50 to 1000 | < 50 | < 50
8 | COc1cc2c(Nc3ccc(Br)c(Cl)c3F)ncnc2cc1OC[C@@H]1CN(C)CC(=O)N1C | 50 to 1000 | 50 to 1000 | 50 to 1000 | 1000 to 20000
9 | COc1cc2c(Nc3ccc(Br)c(Cl)c3)ncnc2cc1O[C@@H]1CCOC1 | 50 to 1000 | 1000 to 20000 | 50 to 1000 | 50 to 1000
10 | COc1cc2c(Nc3ccc(Cl)c(Cl)c3)ncnc2cc1OCc1csc(C2CCCN(C)C2)n1 (stereo unspecified) | 50 to 1000 | 50 to 1000 | 50 to 1000 | 50 to 1000
11 | COc1cc2c(Nc3ccc(Br)c(Cl)c3)ncnc2cc1O[C@H]1CO[C@H]2[C@@H]1OC[C@@H]2O | 50 to 1000 | 1000 to 20000 | 1000 to 20000 | 50 to 1000
12 | COc1cc2c(Nc3ccc(Cl)c(Cl)c3)ncnc2cc1OCC1CN(S(C)(=O)=O)CCCO1 (stereo unspecified) | < 50 | 50 to 1000 | 50 to 1000 | < 50
13 | COc1cc2c(Nc3ccc(Cl)c(Cl)c3)ncnc2cc1OCC1CN(C(C)=O)CCCO1 (stereo unspecified) | < 50 | 50 to 1000 | 50 to 1000 | < 50
14 | COc1cc2c(Nc3ccc(Cl)c(Cl)c3)ncnc2cc1OCC1CN(CC(N)=O)CCO1 (stereo unspecified) | < 50 | 50 to 1000 | 50 to 1000 | < 50
15 | COc1cc2c(Nc3ccc(N4CCN(C)CC4)cc3)ncnc2cc1O[C@H]1CO[C@H]2[C@@H]1OC[C@@H]2F | 1000 to 20000 | 1000 to 20000 | 1000 to 20000 | 1000 to 20000
16 | COc1cc2c(Nc3ccc(Br)c(Cl)c3)ncnc2cc1O[C@H]1CO[C@H]2[C@@H]1OC[C@@H]2N1CCOCC1 | 50 to 1000 | 1000 to 20000 | 1000 to 20000 | 1000 to 20000
17 | COc1cc2c(Nc3ccc(C)c(Br)c3)ncnc2cc1OCC1CN(C)CCO1 (stereo unspecified) | < 50 | 50 to 1000 | < 50 | 50 to 1000
18 | COc1cc2c(Nc3ccc(Cl)c(Cl)c3)ncnc2cc1OCC1CN(S(=O)(=O)CCCCl)CCO1 (stereo unspecified) | < 50 | 50 to 1000 | 50 to 1000 | 50 to 1000
19 | COc1cc2c(Nc3ccc(Cl)c(Cl)c3F)ncnc2cc1OC[C@@H]1CN(C)CC(=O)N1C | 50 to 1000 | 50 to 1000 | 50 to 1000 | 1000 to 20000
20 | CCN1CCc2nc(COc3cc4ncnc(Nc5ccc(Cl)c(Cl)c5)c4cc3OC)sc2C1 | < 50 | 50 to 1000 | 50 to 1000 | < 50
21 | COc1cc2c(Nc3ccc(Br)c(Cl)c3F)ncnc2cc1OCC1CN(C)C(C)(C)CO1 (stereo unspecified) | < 50 | < 50 | < 50 | < 50
22 | CCOc1cc2c(Nc3ccc(Cl)c(Cl)c3)ncnc2cc1OCC1CNCCO1 (stereo unspecified) | < 50 | – | < 50 | < 50
